According to publication PMC10390652 (Inorganic chemistry, 2023):

Assay: Biodistribution in healthy mice
Type: in vivo, female Balb/c mice
Conditions: in saline

[47Sc+3].[Cl-].[Cl-].[Cl-] [free ^47Sc]
biodistribution pattern at 1 hour (n=4): more widespread uptake within heart, lungs, spleen, kidney, and femur | biodistribution pattern at 1 hour (n=4, listed as [^47Sc]ScCl3): widespread biodistribution with uptake seen in heart, spleen and kidneys along with the liver, and intestines
